In article PMC8055447 (Journal of medicinal chemistry, 2019):

Assays:
sodium channels = conditions: from 2 μM to 50 μM, rat DRG neurons, overnight incubation, veratridine 30 μM
[1] = test system: EV-D68 viral capsid protein VP1 expression; assay: Immunofluorescence imaging of viral capsid protein VP1 in infected RD cells; type: cell-based; conditions: 9 hpi; for VP1 protein expression (immunofluorescence imaging): 1 μM, US/KY/14-18953, MOI = 1
[2] = test system: EV-D68 viral capsid protein VP1 expression; assay: Western blot of viral capsid protein VP1 in infected RD cells; type: cell-based; conditions: 9 hpi, US/KY/14-18953, MOI = 1
[3] = test system: EV-D68 US/KY/14-18953 virus; assay: Viral CPE assay, EV-D68 US/KY/14-18953 in RD cells; type: cell-based, enterovirus D68 (EV-D68); conditions: EV-D68 US/KY/14-18953, RD cells

Row | Compound | inhibition of sodium current conductance (sodium channels) | VP1 protein expression (immunofluorescence imaging) [1] | VP1 expression (western blot) ([2]; 1 μM) | SI (selectivity index, CC50/EC50) [3] | fluorescent signal of VP1 (immunofluorescence imaging) ([1]; 3 μM, US/KY/14-18953, MOI = 1, vs DMSO control) | VP1 expression (western blot) ([2]; 3 μM)
1 | CN(C)CCNC(=O)c1cc(-c2ccccc2)nc2ccccc12 [Compound 10a, N-[2-(dimethylamino)ethyl]-2-phenylquinoline-4-carboxamide] | minimal to no effect | completely blocked | completely blocked | – | – | –
2 | CN(C)CCNC(=O)c1cc(-c2cccs2)nc2ccccc12 [Compound 12a, N-[2-(dimethylamino)ethyl]-2-(thiophen-2-yl)quinoline-4-carboxamide] | – | completely blocked | completely blocked | > 600 | – | –
3 | O=C(NCCN1CCCC1)c1cc(-c2cccs2)nc2ccccc12 [Compound 12c, N-[2-(pyrrolidin-1-yl)ethyl]-2-(thiophen-2-yl)quinoline-4-carboxamide] | – | completely blocked | completely blocked | > 600 | – | –
4 | CCCCOc1cc(C(=O)NCCN(CC)CC)c2ccccc2n1 [Dibucaine, dibucaine, reference compound] | – | – | – | – | significantly reduced | nearly completely inhibited
